Source: US7579334B2, “Compounds with anti-inflammatory activity” (GlaxoSmithKline Istrazivacki Centar Zagreb, priority 2003, dated 2009)

Columns and labels:
Male Wistar rats = assay: Cold stress model; assay type: in vivo; conditions: standard 1 mg/kg once daily over three days, cold stress at 4° C. for 1 hour; P<0.05, T-test
Experimental: Male Wistar rats with a body weight of 200-250 g (our own breeding) were randomly divided into groups. The carrier (lactose) in the volume of 0.5 mL/100 g s.c. was applied to the negative and positive control group. Test substances and the standard were applied once daily over three days in the dose of 2 mg/kg in the volume of 0.5 mL/100 g of body weight. The standard was applied in the dose of 1 mg/kg, in the volume of 0.5 mL/100 g of body weight.
On day three, 2 hours after the last treatment, all animals, except for the negative control group, were subjected to cold stress at 4° C. for 1 hour. After the stress, the animals were anaesthetized with thiopental (Pliva d.d.) and blood from all animals was drawn on K2 EDTA into test tubes. Plasma samples were frozen at −70° C. Corticosterone levels were determined by fluorimetric method according to Silber. Thymuses were removed from animals and weighed, and their weights were compared with the negative and positive control.

Male Balb/C mice = assay: Model of lung eosinophilia in mice; assay type: in vivo; conditions: OVA-sensitised and challenged mice, daily i.n. or i.p.; t-test, p<0.05
Experimental: Model of Lung Eosinophilia in Mice Male Balb/C mice with a body weight of 20-25 g were randomly divided into groups, and sensitised by an i.p. injection of ovalbumin (OVA, Sigma) on day zero and day fourteen. On the twentieth day, the mice were subjected to a challenge test by i.n. (intranasal) application of OVA (positive control or test groups) or PBS (negative control). 48 hours after i.n. application of OVA, the animals were anaesthetized and the lungs were rinsed with 1 mL of PBS. The cells were separated on Cytospin 3 cytocentrifuge (Shandon). The cells were stained in Diff-Quick (Dade) and the percentage of eosinophils was determined by differential counting of at least 100 cells. Fluticasone (GlaxoWellcome) and beclomethasone ([…].) were used as standard substances, with positive and negative control. The compounds were administered daily i.n. or i.p. in different doses 2 days before the challenge test and up to the completion of the test.

[1] = biological target: T1, alpha isoform of human glucocorticoid receptor (Homo sapiens, UniProt P04150); assay: Assay of binding to human glucocorticoid receptor ([3H]dexamethasone displacement in transfected COS-1 cells); conditions: 24 nM [3H]dexamethazone, COS-1 cells transfected with human GR alpha, 90 minutes at 37° C.
T1 construct: expressed in transfected cells; host or cells: COS-1 cells, transient transfection with pcDNA3.1 Hygro(+) carrying the GR alpha cDNA
T1 sequence (P04150 1-777): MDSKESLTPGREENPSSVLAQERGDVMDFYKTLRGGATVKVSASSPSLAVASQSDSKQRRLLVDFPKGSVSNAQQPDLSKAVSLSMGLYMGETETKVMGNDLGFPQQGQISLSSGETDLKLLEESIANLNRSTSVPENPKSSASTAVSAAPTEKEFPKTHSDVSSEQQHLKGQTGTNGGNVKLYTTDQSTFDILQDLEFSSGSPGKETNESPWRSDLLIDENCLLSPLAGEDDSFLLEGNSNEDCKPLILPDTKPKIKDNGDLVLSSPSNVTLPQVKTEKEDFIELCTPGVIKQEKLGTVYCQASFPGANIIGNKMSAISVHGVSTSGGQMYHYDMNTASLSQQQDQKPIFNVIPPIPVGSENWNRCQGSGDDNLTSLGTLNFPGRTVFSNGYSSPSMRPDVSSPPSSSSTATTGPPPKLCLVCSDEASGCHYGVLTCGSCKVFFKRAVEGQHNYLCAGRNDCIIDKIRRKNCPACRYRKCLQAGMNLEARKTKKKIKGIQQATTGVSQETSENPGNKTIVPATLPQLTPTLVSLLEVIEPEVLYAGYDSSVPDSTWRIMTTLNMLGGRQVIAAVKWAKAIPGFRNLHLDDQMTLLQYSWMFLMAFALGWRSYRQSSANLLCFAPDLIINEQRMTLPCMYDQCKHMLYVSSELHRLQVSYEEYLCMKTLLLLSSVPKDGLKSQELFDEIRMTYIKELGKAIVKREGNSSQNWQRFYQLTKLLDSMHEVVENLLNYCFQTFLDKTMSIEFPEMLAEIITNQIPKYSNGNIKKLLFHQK
Experimental: Assay of Binding to Human Glucocorticoid Receptor The gene for the alpha isoform of human glucocorticoid receptor was cloned by reverse polymerase chain reaction. The total RN A was isolated from human peripheral blood lymphocytes according to the instructions of the manufacturer (Qiagen), transcripted into cDNA with AMV reverse transcriptase (Roche) and the gene was multiplied by specific primers 1) [NT] ID NO:1] and 2) [NT] NO:1]. […] The medium was removed and 1 μg of DNA, 7 μl of PLUS reagent and 2 μl of Lipofectamin (Life Technologies) in 500 μl of DMEM were added per well. The cells were incubated at 37° C. in an atmosphere with 5% CO2 and after 5 hours the same volume of 20% FBS/DMEM was added. After 24 hours, the medium was completely changed. 48 hours after transfection, the test compounds in different concentrations and 24 nM [^3H]dexamethazone (Pharmacia) in DMEM medium were added. The cells were incubated for 90 minutes at 37° C. in an atmosphere with 5% CO2, washed three times with PBS buffer (Sigma) cooled to 4° C. (pH=7.4), and then lysed in Tris buffer (pH=8.0) (Sigma) with 0.2% of SDS (Sigma). After the addition of UltimaGold XR (Packard) scintillation liquid, the residual radioactivity was read in a Tricarb (Packard) β-scintillation counter.

| corticosterone plasma levels (Male Wistar rats) | weight of the thymus (Male Wistar rats) | Compound | number of eosinophils in the lung rinse with respect to positive control (Male Balb/C mice) | affinity for glucocorticoid receptor (displacement of radioactive dexamethasone) [1] |
| --- | --- | --- | --- | --- |
| statistically significantly reduced | reduced the weight of the thymus | CCCC1O[C@@H]2C[C@H]3[C@@H]4CCC5=CC(=O)C=C[C@]5(C)[C@H]4[C@@H](O)C[C@]3(C)[C@]2(C(=O)CO)O1 (stereo partly drawn) [budesonide] |  |  |
|  |  | CC[C@H]1OC(=O)[C@H](C)[C@@H](O)[C@H](C)[C@@H](O)[C@](C)(O)C[C@@H](C)CN(CCCNC(=O)[C@H]2[C@H](C)CC3C4CCC5=CC(=O)C=C[C@]5(C)[C@@]4(F)[C@@H](O)C[C@@]32C)[C@H](C)[C@@H](O)[C@]1(C)O (stereo partly drawn) [Compound 2] | statistically significantly reduced | have the affinity for glucocorticoid receptor |
| statistically significantly reduced | reduced the weight of the thymus | C[C@@H]1C[C@H]2[C@@H]3C[C@H](F)C4=CC(=O)C=C[C@]4(C)[C@@]3(F)[C@@H](O)C[C@]2(C)[C@@]1(O)C(=O)SCF [fluticasone] |  |  |
